According to ChEMBL document CHEMBL1201862, “PubChem BioAssay data set” (2004):
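Compound exposure: 48 hours, 5 concentrations, 96-well plates. GI50 = concentration required for 50% inhibition of growth.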 Active and inactive are the calls of the source. Cut-off read from the data, not from the text of the source: active = GI50 up to about 1.1 µM and inactive = higher.

Tests used:
Test in all cases: DTP human tumour cell line panel, 48 h
DLD-1 = test system: DLD-1
LXFL 529 = test system: LXFL 529
DMS-114 = test system: DMS-114
KM-20L2 = test system: KM-20L2
DMS-273 = test system: DMS-273
RXF 631 = test system: RXF 631
SNB-78 = test system: SNB-78
HOP-18 = test system: HOP-18
XF498 = test system: XF498

| SMILES | GI50 (DLD-1) | GI50 (LXFL 529) | GI50 (DMS-114) | GI50 (KM-20L2) | GI50 (DMS-273) | GI50 (RXF 631) | GI50 (SNB-78) | GI50 (HOP-18) | GI50 (XF498) |
| --- | --- | --- | --- | --- | --- | --- | --- | --- | --- |
| COC1=CC(=O)c2c(ccc3ncnc(N)c23)C1=O | 2.08 µM (inactive) | 1.75 µM (inactive) | 1.77 µM (inactive) | 18.8 µM (inactive) | 3.32 µM (inactive) | 4.82 µM (inactive) | 2.36 µM (inactive) | – | – |
| COC(=O)CCC(=O)C(CC(=O)OC)C(=O)CCC(=O)NCCc1ccccc1 (stereo not drawn) | – | > 100 µM (inactive) | – | > 100 µM (inactive) | > 100 µM (inactive) | > 100 µM (inactive) | > 100 µM (inactive) | > 100 µM (inactive) | – |
| N=C(CC(=O)Nc1ccc(Cl)cc1)Nc1ccccc1 | > 100 µM (inactive) | > 100 µM (inactive) | – | > 100 µM (inactive) | > 100 µM (inactive) | – | > 100 µM (inactive) | – | > 100 µM (inactive) |
| CSC(C1c2ccccc2N(C)C2=NC(=O)N(C)C(=O)C21Cl)S(=O)(=O)c1ccc(C)cc1 (stereo not drawn) | 40.9 µM (inactive) | 22.2 µM (inactive) | 49.1 µM (inactive) | > 100 µM (inactive) | 27.3 µM (inactive) | 39.6 µM (inactive) | 46.9 µM (inactive) | 83.2 µM (inactive) | > 100 µM (inactive) |
| O=c1c2cc(Br)cc(Br)c2nc(CCCl)n1-c1ccc(O)c([N+](=O)[O-])c1 | 18.9 µM (inactive) | 16.1 µM (inactive) | 19.1 µM (inactive) | – | 21.5 µM (inactive) | – | 32.4 µM (inactive) | 16.7 µM (inactive) | – |
| Cc1cc(C)c(C(=O)c2no[n+]([O-])c2C(=O)c2c(C)cc(C)c(Br)c2C)c(C)c1Br | 14.2 µM (inactive) | 11.2 µM (inactive) | 10.8 µM (inactive) | 16.2 µM (inactive) | 18.5 µM (inactive) | 13.6 µM (inactive) | 18.6 µM (inactive) | – | – |
| C/C(CC(=O)CCCC(=O)Nc1ccc(Cl)cc1Cl)=N/NC(=O)CC#N | > 100 µM (inactive) | > 100 µM (inactive) | > 100 µM (inactive) | > 100 µM (inactive) | > 100 µM (inactive) | > 100 µM (inactive) | > 100 µM (inactive) | > 100 µM (inactive) | > 100 µM (inactive) |
| O=C(O)c1ccc2c(c1)C(=O)N(c1ccc(S(=O)(=O)c3ccc(N4C(=O)c5ccc(C(=O)O)cc5C4=O)cc3)cc1)C2=O | – | > 100 µM (inactive) | > 100 µM (inactive) | > 100 µM (inactive) | > 100 µM (inactive) | – | > 100 µM (inactive) | – | > 100 µM (inactive) |
| CCOc1ccccc1NC(=O)CSc1nnc(Cc2ccccc2)o1 | 23.4 µM (inactive) | 16.6 µM (inactive) | 17.6 µM (inactive) | 38.1 µM (inactive) | 22.7 µM (inactive) | – | 81.5 µM (inactive) | 20.4 µM (inactive) | – |
| OC12c3ccccc3C1(N1CCOCC1)CCCCC21OCCCO1 (stereo not drawn) | > 100 µM (inactive) | > 100 µM (inactive) | > 100 µM (inactive) | > 100 µM (inactive) | > 100 µM (inactive) | – | > 100 µM (inactive) | > 100 µM (inactive) | – |
| CCCCCCCCCCCc1nnc(N)o1 | > 100 µM (inactive) | > 100 µM (inactive) | – | > 100 µM (inactive) | > 100 µM (inactive) | 82 µM (inactive) | > 100 µM (inactive) | – | > 100 µM (inactive) |
| COc1cc(C(=O)C/C(CCC(=O)Nc2ccccc2[N+](=O)[O-])=N\NC(=O)C(N)=O)ccc1O | > 100 µM (inactive) | > 100 µM (inactive) | > 100 µM (inactive) | > 100 µM (inactive) | > 100 µM (inactive) | > 100 µM (inactive) | > 100 µM (inactive) | > 100 µM (inactive) | – |
| CC1CC#CCOC(=O)CCCC1=O (stereo not drawn) | > 100 µM (inactive) | > 100 µM (inactive) | > 100 µM (inactive) | > 100 µM (inactive) | > 100 µM (inactive) | – | > 100 µM (inactive) | > 100 µM (inactive) | > 100 µM (inactive) |
| CCCCC1NC=Nc2c1ccc1c2[nH]c2ccccc21 (stereo not drawn) | 2.47 µM (inactive) | 1.88 µM (inactive) | 1.76 µM (inactive) | – | 1.7 µM (inactive) | 2.6 µM (inactive) | 13 µM (inactive) | 10.2 µM (inactive) | 1.89 µM (inactive) |
| C[N+](C)=c1[nH]c2ccccc2[nH]1 | > 100 µM (inactive) | > 100 µM (inactive) | > 100 µM (inactive) | > 100 µM (inactive) | > 100 µM (inactive) | – | – | > 100 µM (inactive) | – |
| COP12(OC)NC(=O)OC1(C(F)(F)F)c1ccccc1O2 (stereo not drawn) | > 100 µM (inactive) | > 100 µM (inactive) | > 100 µM (inactive) | – | > 100 µM (inactive) | – | > 100 µM (inactive) | 52.7 µM (inactive) | > 100 µM (inactive) |
| O=P1(c2ccccc2)CCCCC1 | > 100 µM (inactive) | > 100 µM (inactive) | > 100 µM (inactive) | > 100 µM (inactive) | > 100 µM (inactive) | – | > 100 µM (inactive) | > 100 µM (inactive) | < 0.01 µM (active) |
| CC(=O)OCC1OC(n2cccnc2=O)C(OC(C)=O)C1OC(C)=O (stereo not drawn) | > 100 µM (inactive) | > 100 µM (inactive) | > 100 µM (inactive) | > 100 µM (inactive) | > 100 µM (inactive) | > 100 µM (inactive) | > 100 µM (inactive) | > 100 µM (inactive) | > 100 µM (inactive) |
| Cc1cccc(O)c(=O)c1 | 24.1 µM (inactive) | 29.9 µM (inactive) | 5.92 µM (inactive) | 22.8 µM (inactive) | 7.41 µM (inactive) | – | > 100 µM (inactive) | > 100 µM (inactive) | – |
| COc1ccc(NC(=O)C2C(=O)N(c3ccc(OC)cc3)C(=O)/C2=N\NC(N)=O)cc1 (stereo not drawn) | – | 39.9 µM (inactive) | 63.7 µM (inactive) | 49.5 µM (inactive) | 43.6 µM (inactive) | – | 57.1 µM (inactive) | 21.2 µM (inactive) | – |
| C(=C1\CCC/C(=C/c2ccccc2)C1=NNc1ccccc1)/c1ccccc1 | > 100 µM (inactive) | > 100 µM (inactive) | > 100 µM (inactive) | > 100 µM (inactive) | > 100 µM (inactive) | > 100 µM (inactive) | > 100 µM (inactive) | > 100 µM (inactive) | – |
| COc1cccc(C(=O)C2C(=O)N(C)CCc3ccccc32)c1OC (stereo not drawn) | > 100 µM (inactive) | > 100 µM (inactive) | > 100 µM (inactive) | > 100 µM (inactive) | > 100 µM (inactive) | > 100 µM (inactive) | – | > 100 µM (inactive) | > 100 µM (inactive) |
| CS(=O)(=O)NNS(=O)(=O)c1ccc(Br)cc1 | > 100 µM (inactive) | > 100 µM (inactive) | > 100 µM (inactive) | > 100 µM (inactive) | > 100 µM (inactive) | – | > 100 µM (inactive) | > 100 µM (inactive) | > 100 µM (inactive) |
| Cc1ccc2nc3c(Cl)cc(=O)cc-3sc2c1 | > 10 µM (inactive) | 18.7 µM (inactive) | 20.4 µM (inactive) | > 10 µM (inactive) | 19.7 µM (inactive) | 30.8 µM (inactive) | 39.2 µM (inactive) | 2.96 µM (inactive) | – |
| COc1cc(C2c3cc4c(cc3[C@@H](Nc3ccc(N(C)C)cc3)[C@H]3COC(=O)C23)OCO4)cc(OC)c1O (stereo partly drawn) | 1.73 µM (inactive) | 2.15 µM (inactive) | 0.42 µM (active) | 0.708 µM (active) | 0.116 µM (active) | – | 4.31 µM (inactive) | 1.85 µM (inactive) | 0.687 µM (active) |
| CC1(C)CCCC2(C)[C@@H]1CC[C@@]13CC(=O)[C@@](C)(CC[C@@H]21)C3 (stereo partly drawn) | > 100 µM (inactive) | 80.2 µM (inactive) | 46 µM (inactive) | 72.3 µM (inactive) | 55.6 µM (inactive) | 78.3 µM (inactive) | > 100 µM (inactive) | – | – |
| COc1ccc(-c2csc(=[N+]3CCCCC3)s2)cc1 | 4.79 µM (inactive) | 3.07 µM (inactive) | – | 2.66 µM (inactive) | 3.27 µM (inactive) | – | 3.58 µM (inactive) | 5.15 µM (inactive) | 4.05 µM (inactive) |
